Assay results from patent publication US8486373B2, “Intramolecularly-quenched near infrared fluorescent probes” (The General Hospital Corporation, priority 1998, dated 2013).

Experiment: Properties of commercially-available near infrared fluorochromes
Type: physicochemical
Conditions: Cy5.5 free in solution, FIG. 3A
Description: Fluorescent probes with excitation and emission wavelengths in the near infrared spectrum are used, i.e., 650-1300 nm. Use of this portion of the electromagnetic spectrum maximizes tissue penetration and minimizes absorption by physiologically abundant absorbers such as hemoglobin (<650 nm) and water (>1200 nm). […] Table 1 summarizes information on the properties of six commercially-available near infrared fluorochromes, whose structures are shown in FIGS. 2A and 2B.

emission wavelength / peak emission: 694 nm
Substance: Cy5.5
